Several values for one entry are separate records, joined by “and”; a condition that tells them apart may be missing. Equal values may be shown once.
How the values were obtained:
[1] = In vivo PK profile determination in mouse plasma (LC-MS/MS, population-based PK model); details: for In vivo drug free concentrations: SN38 after irinotecan 50 mg/kg
Protocol: The samples were collected at 5, 15, 40 min, and 1, 2, 4, 6, 8 and 24 h.
Whole blood was mixed 1:5 with PBS and centrifuged at 1500×g for 3 min at 4 °C, and the plasma was extracted and frozen at –80 °C.
Using this PK model, a time course of free plasma concentrations of both drugs was simulated (Table 1).
Acidified acetonitrile ([…]) was added with the internal standard, followed by centrifugation at 3000 rpm for 10 min. Supernatant ([…]) was then removed to a clean plate and dried under nitrogen. […]
Supplementary Method 8. Pharmacokinetic models parameters used for simulations
AZD156 PK model and PK parameters used for simulations

SW620 spheroids = assay: SW620 spheroid viability (CellTiterGlo), static plate format; format: cell-based; details: 6 days
Protocol: In microfluidic Ibidi chip, tumour spheroids were exposed to eight different concentrations in a gradient fashion mimicking the in vivo pharmacokinetic profile and treatment schedule for both drugs. c Spheroids were imaged in situ (plate/chip) at the end of the treatment and their volumes calculated from average radius deducted from min/max Feret. d Spheroid viability was measured at the end of the treatment by CellTiterGlo assay (d). N = 6 per condition from two independent experiments. Box-plots show median (centre line); box limits are 25th to 75th percentile; whiskers represent min and max values. Statistical analysis was performed using 1-way ANOVA.
From the same experimental setup, we explored SW620 spheroid viability at 6 days for static and microfluidic setup (Fig. 2d).
Compounds were dispensed in each well using an automated HP D300 digital dispenser (Tecan, UK).
Spheroid viability assessment used a metabolic method (CellTiterGlo 3D, G9681, Promega) by measuring luminescence units expressed by individually recovered spheroids. […] CellTiterGlo vial was allowed to thaw (1 h, room temperature) and 25 µL reagent were added to each spheroid well. […] Luminescence levels were measured using a SpectraMax i3X (Molecular Devices, USA).

γH2AX = γH2AX immunofluorescence in SW620 spheroids, microfluidic chip; format: cell-based; details: SN38 monotherapy, day 7
Description: SN38 is a TOP1 inhibitor that that prevents relegation of the DNA strand by binding to TOP1–DNA complex and causes DNA double strand breaks (DSBs). Those DNA DSB lesions trigger activation of the ATM kinase for effective repair. Inhibition of ATM and consequent accumulation of unrepaired breaks leading to increased cell death provides the rationale for developing this combination for cancer treatment. […] Here, we tested whether different schedules lead to different activation of pharmacodynamic markers that are associated with DNA DSB damage, apoptosis and cell proliferation. The γ-H2AX associated foci accumulate in cells exposed to DBS inducing agents[18],[19]. These foci can be detected by immunostaining to determine their, size and morphology. However, spheroid imaging using a 20x objective on a CV7000 confocal microscope cannot accurately explore foci morphology, so we introduced customised ImageJ macros (described in “Methods” section, Supplementary Fig. 2 and Supplementary Method 1) to quantitate positive cells within a spheroid. The same method was applied to quantitate CC3-positive (apoptotic) cells, while normalisation by spheroid area was not required for Ki67, as this biomarker is present in all proliferating cells. […]
Supplementary Figure 2. Fluorescence image processing, per biomarker, using Fiji ImageJ custom-made macros […]

SMILES: CCc1c2c(nc3ccc(O)cc13)-c1cc3c(c(=O)n1C2)COC(=O)[C@]3(O)CC [SN38]
- In vivo drug free concentrations ([1]; mouse plasma, time 1 h): 5.5 nM
- In vivo drug free concentrations ([1]; mouse plasma, time 2 h): 4.7 nM
- In vivo drug free concentrations ([1]; mouse plasma, time 3 h): 4.4 nM
- In vivo drug free concentrations ([1]; mouse plasma, time 4 h): 4.1 nM
- In vivo drug free concentrations ([1]; mouse plasma, time 5 h): 3.6 nM
- In vivo drug free concentrations ([1]; mouse plasma, time 6 h): 3.1 nM
- In vivo drug free concentrations ([1]; mouse plasma, time 7 h): 2.8 nM
- In vivo drug free concentrations ([1]; mouse plasma, time 8 h): 2.4 nM
- In vivo drug free concentrations ([1]; mouse plasma, time 9 h): 2.1 nM
- In vivo drug free concentrations ([1]; mouse plasma, time 10 h): 1.9 nM
- In vivo drug free concentrations ([1]; mouse plasma, time 11 h): 1.7 nM
- In vivo drug free concentrations ([1]; mouse plasma, time 12 h): 1.6 nM
- In vivo drug free concentrations ([1]; mouse plasma, time 13 h): 1.5 nM
- In vivo drug free concentrations ([1]; mouse plasma, time 14 h): 1.4 nM
- In vivo drug free concentrations ([1]; mouse plasma, time 15 h): 1.2 nM
- In vivo drug free concentrations ([1]; mouse plasma, time 16 h): 1.1 nM
- In vivo drug free concentrations ([1]; mouse plasma, time 17 h): 1.1 nM
- In vivo drug free concentrations ([1]; mouse plasma, time 18 h): 0.9 nM
- In vivo drug free concentrations ([1]; mouse plasma, time 19 h): 0.9 nM
- In vivo drug free concentrations ([1]; mouse plasma, time 20 h): 0.8 nM
- In vivo drug free concentrations ([1]; mouse plasma, time 21 h): 0.7 nM
- In vivo drug free concentrations ([1]; mouse plasma, time 22 h): 0.7 nM
- In vivo drug free concentrations ([1]; mouse plasma, time 23 h): 0.6 nM
- In vivo drug free concentrations ([1]; mouse plasma, time 24 h): 0.6 nM
- in vivo average measured concentration ([1]; mouse plasma, between 2-4h from treatment onset): 4.36 nM
- Cmax ([1]; read-out: maximum mouse plasma concentration (Cmax), 50 mg/kg irinotecan (SN38), 10 mg/kg AZD0156): 5.5 nM
- spheroid viability (SW620 spheroids; Static plate format, CellTiterGlo, replicates (Fig 2d raw data), unit not given): 36.02 and 31.7 and 39.52
- reduction in spheroid viability (SW620 spheroids; static, continuous exposure): ~ 60%
- change in γH2AX compared to the control group (γH2AX): did not observe a significant change
